According to the NIST ThermoML archive (doi:10.1016/j.jct.2008.02.016):
± gives the expanded uncertainty stated by the source.

Settings: Liquid

| vapor or sublimation pressure (303.15 K) [kPa] | vapor or sublimation pressure (313.15 K) [kPa] | vapor or sublimation pressure (323.15 K) [kPa] | SMILES |
| --- | --- | --- | --- |
| 25.01 ± 0.37 | 37.54 ± 0.53 | 54.39 ± 0.74 | CCCCCC [hexane] |
| 7.87 ± 0.16 | 12.33 ± 0.22 | 18.95 ± 0.3 | CCCCCCC [heptane] |
